Data on 24 compounds can be found in patent publication US20230135894A1, “MK2 DEGRADERS AND USES THEREOF” (Kymera Therapeutics, Inc., priority 2021, published 2023).

The target in experiment [1] is T1, MK2 (Homo sapiens, UniProt P49137). In words: MK2 degradation in human THP-1 monocytic cells (MSD, 24 h). It counts as cell-based. Also noted: endogenous in cells. The following applies: for Dmax: THP-1, THP-1 cells; for DC50: THP-1 cells, read-out: MK2 MSD THP-1 degradation 24 h GMean External Abs DC50. The method in brief: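 Readout: residual MK2 protein in THP-1 lysates, measured by MSD electrochemiluminescence sandwich assay after 24 h compound exposure (≤10-point serial dilutions, 0.1% DMSO, 37 °C). Curves normalised between lysis-buffer and DMSO-cell signals; DC50 by 4-parameter logistic fit.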

In experiment [2] the target is T1, MK2. The experiment is described as follows: MK2 degradation in human SW1353 cells (MSD, 24 h). The experiment is classed as cell-based. Also noted: endogenous in cells; host or cells: SW-1353 (ATCC HTB-94); key to MK2 MSD SW 1353 24 h Dmax %: —: “-”=not tested or inactive. As to conditions: for Dmax: read-out: MK2 MSD SW 1353 24 h Dmax %; for DC50: read-out: MK2 MSD SW1353 degradation 24 h GMean External Abs DC50. The method in brief:
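DC50 derived by 4-parameter logistic fit, with DMSO-treated signal as top and lysis-buffer signal as bottom. Remaining MK2 was measured by MSD electrochemiluminescent sandwich assay in RIPA lysates of human SW1353 cells exposed for 24 h at 37 °C to serially diluted compound in 0.1% DMSO.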

T1 sequence (P49137 whole entry): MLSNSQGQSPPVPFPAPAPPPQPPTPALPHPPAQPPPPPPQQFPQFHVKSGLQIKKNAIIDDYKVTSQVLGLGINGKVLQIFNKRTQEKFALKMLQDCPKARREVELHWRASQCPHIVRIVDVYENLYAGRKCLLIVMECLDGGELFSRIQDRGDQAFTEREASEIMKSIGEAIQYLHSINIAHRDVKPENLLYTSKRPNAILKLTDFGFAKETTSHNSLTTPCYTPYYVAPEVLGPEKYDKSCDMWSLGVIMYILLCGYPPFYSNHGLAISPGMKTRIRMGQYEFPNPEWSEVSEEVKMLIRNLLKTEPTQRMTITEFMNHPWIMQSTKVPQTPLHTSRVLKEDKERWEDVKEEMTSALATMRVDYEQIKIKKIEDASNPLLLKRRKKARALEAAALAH

Broadly, the Dmax is the greatest extent of degradation seen. One may read the DC50 as the midpoint of the concentration-degradation curve. `C[C@@H]1CNc2c(sc3ccc4nc(-c5cccc(N6CCC(CN7CCN(c8cccc9c(N%10CCC(=O)NC%10=O)cncc89)CC7)CC6)c5)ccc4c23)C(=O)N1` [Compound I-310]: the Dmax on MK2 [1] and at MK2 [2] was more than 75% throughout. For the same compound, the DC50 at MK2 [1] and at MK2 [2] was 1 to 10 nM each time.
`C[C@@H]1CNc2c(sc3ccc4nc(-c5ccc(N6CCC(CN7CCC(c8cccc9c(N%10CCC(=O)NC%10=O)cncc89)CC7)CC6)cc5)ccc4c23)C(=O)N1` [Compound I-311]: at MK2 [1], the Dmax is more than 75% and the DC50 lay in the range of 1 to 10 nM. Also, at MK2 [2], the Dmax was more than 75% and the DC50 was in the range of 1 to 10 nM.
Regarding `C[C@@H]1CNc2c(sc3ccc4nc(-c5cccc(N6CCC(CN7CCC(c8cccc9c(N%10CCC(=O)NC%10=O)cncc89)CC7)CC6)c5)ccc4c23)C(=O)N1` [Compound I-312], at MK2 [1], the Dmax was more than 75% and the DC50 was in the range of 1 to 10 nM. Moreover, at MK2 [2], the Dmax is more than 75% and the DC50 was 1 to 10 nM.
`C[C@@H]1CNc2c(sc3ccc4nc(-c5ccc(N6CCC(CN7CCN(c8ccc9c(c8)CN(C8CCC(=O)NC8=O)C9=O)CC7)CC6)cc5)ccc4c23)C(=O)N1` (stereo partly drawn) [Compound I-313]: the Dmax at MK2 [1] and on MK2 [2] was more than 75% each time. The DC50 at MK2 [1] and on MK2 [2] was 1 to 10 nM each time.
Turning to `C[C@@H]1CNc2c(sc3ccc4nc(-c5ccc(N6CCC(CN7CCN(c8ccc9c(c8)n(C)c(=O)n9C8CCC(=O)NC8=O)CC7)CC6)cc5)ccc4c23)C(=O)N1` (stereo partly drawn) [Compound I-314], on MK2 [1], the Dmax is more than 75% and the DC50 was less than 1 nM. For the same compound, at MK2 [2], the greatest degradation seen (Dmax) is more than 75% and the DC50 was less than 1 nM.
Take `C[C@@H]1CNc2c(sc3ccc4nc(-c5ccc(N6CCC(CN7CCN(c8cccc9c8n(C)c(=O)n9C8CCC(=O)NC8=O)CC7)CC6)cc5)ccc4c23)C(=O)N1` (stereo partly drawn) [Compound I-315]: at MK2 [1], the Dmax is more than 75% and the DC50 lay in the range of 1 to 10 nM. At MK2 [2], the Dmax was more than 75% and the DC50 is 1 to 10 nM.
In the case of `Cn1c(=O)n(C2CCC(=O)NC2=O)c2cccc(N3CCC(CN4CCC5(CC4)CNC(=O)c4c5[nH]c5c4CCc4cnc(-c6ccccc6F)cc4-5)CC3)c21` (stereo not drawn) [Compound I-316], at MK2 [1], the Dmax was less than 50% and the DC50 is more than 100 nM. For the same compound, on MK2 [2], the Dmax was less than 50% and the half-maximal degradation concentration (DC50) is more than 100 nM.
In the case of `C[C@@H]1CNc2c(sc3ccc4nc(-c5ccc(N6CCC(CN7CCN(c8cccc9c(N%10CCC(=O)NC%10=O)cncc89)CC7)CC6)cc5)ccc4c23)C(=O)N1` [Compound I-317], on MK2 [1], the Dmax is more than 75% and the DC50 was less than 1 nM. In addition, at MK2 [2], the Dmax was more than 75% and the DC50 lay in the range of 1 to 10 nM.
On to `C[C@@H]1CNc2c(sc3ccc4nc(-c5cccc(N6CCN(C(=O)COCCOCCc7cccc8c7n(C)c(=O)n8C7CCC(=O)N(C)C7=O)CC6)c5)ccc4c23)C(=O)N1` (stereo partly drawn) [Compound I-318], for which, at MK2 [1], the Dmax is less than 50% and the DC50 was more than 100 nM. In addition, at MK2 [2], the Dmax was less than 50% and the DC50 was more than 100 nM.
For `C[C@@H]1CNc2c(sc3ccc4nc(N5CCC6(CCN(CC7CCN(c8ccc9c(c8)n(C)c(=O)n9C8CCC(=O)NC8=O)CC7)CC6)CC5)ccc4c23)C(=O)N1` (stereo partly drawn) [Compound I-389], the maximal degradation (Dmax) at MK2 [1] and at MK2 [2] was less than 50% in each case. Besides, the DC50 at MK2 [1] and on MK2 [2] was more than 100 nM each time.
For the compound `C[C@@H]1CNc2c(sc3ccc4nc(N5CC6(CCN(CC7CCN(c8ccc9c(c8)n(C)c(=O)n9C8CCC(=O)NC8=O)CC7)CC6)C5)ccc4c23)C(=O)N1` (stereo partly drawn) [Compound I-390], on MK2 [1], the Dmax was less than 50% and the DC50 is more than 100 nM. Moreover, on MK2 [2], the Dmax was less than 50% and the DC50 is more than 100 nM.
With `C[C@@H]1CNc2c(sc3ccc4nc(N5CCC(CN6CCC7(CC6)CCN(c6ccc8c(c6)n(C)c(=O)n8C6CCC(=O)NC6=O)CC7)CC5)ccc4c23)C(=O)N1` (stereo partly drawn) [Compound I-391], the greatest degradation seen (Dmax) on MK2 [1] and on MK2 [2] was more than 75% each time. Also, the DC50 on MK2 [1] and at MK2 [2] was less than 1 nM in each case.
With `C[C@@H]1CNc2c(sc3ccc4nc(N5CC6(CCN(C7CCN(c8ccc9c(c8)n(C)c(=O)n9C8CCC(=O)NC8=O)CC7)CC6)C5)ccc4c23)C(=O)N1` (stereo partly drawn) [Compound I-393], at MK2 [1], the Dmax was less than 50% and the DC50 was more than 100 nM. Further, on MK2 [2], the Dmax was less than 50% and the DC50 is more than 100 nM.
With `C[C@@H]1CNc2c(sc3ccc4nc(N5CCC(N6CCC7(CCN(c8ccc9c(c8)n(C)c(=O)n9C8CCC(=O)NC8=O)CC7)CC6)CC5)ccc4c23)C(=O)N1` (stereo partly drawn) [Compound I-395], the Dmax at MK2 [1] and on MK2 [2] was more than 75% each time. The DC50 at MK2 [1] was 1 to 10 nM; on MK2 [2], less than 1 nM.
On to `C[C@@H]1CNc2c(sc3ccc4nc(N5CCC(N6CCC7(CC6)CN(c6ccc8c(c6)n(C)c(=O)n8C6CCC(=O)NC6=O)C7)CC5)ccc4c23)C(=O)N1` (stereo partly drawn) [Compound I-402], for which, on MK2 [1], the Dmax fell in the range of 50 to 75% and the DC50 lay within 1 to 10 nM. On MK2 [2], the Dmax is more than 75% and the DC50 is less than 1 nM.
Consider `Cn1c(=O)n(C2CCC(=O)NC2=O)c2ccc(N3CC(CN4CCN(c5ccc(-c6nccc(-c7cc8c([nH]7)C7(CC7)CNC8=O)n6)c(F)c5)CC4)C3)cc21` (stereo not drawn) [Compound I-403, 3-(5-(3-((4-(3-fluoro-4-(4-(4′-oxo-1′,4′,5′,6′-tetrahydrospiro[cyclopropane-1,7′-pyrrolo[3,2-c]pyridin]-2′-yl)pyrimidin-2-yl)phenyl)piperazin-1-yl)methyl)azetidin-1-yl)-3-methyl-2-oxo-2,3-dihydro-1H-benzo[d]imidazol-1-yl)piperidine-2,6-dionee], for which, on MK2 [1], the Dmax is more than 75% and the DC50 was less than 1 nM. Besides, on MK2 [2], the maximal degradation (Dmax) is more than 75% and the DC50 was less than 1 nM.
As to `Cn1c(=O)n(C2CCC(=O)NC2=O)c2ccc(N3CC(CN4CCN(c5ccc(-c6nccc(-c7cc8c([nH]7)C7(CCCC7)CNC8=O)n6)cc5)CC4)C3)cc21` (stereo not drawn) [Compound I-405], the Dmax on MK2 [1] and on MK2 [2] was more than 75% in each case. For the same compound, the DC50 at MK2 [1] and on MK2 [2] was less than 1 nM throughout.
`Cn1c(=O)n(C2CCC(=O)NC2=O)c2ccc(N3CCC(CN4CCN(c5ccc(-c6cc(-c7cc8c(s7)CCNC8=O)ccn6)cc5)CC4)CC3)cc21` (stereo not drawn) [Compound I-406]: on MK2 [1], the Dmax is less than 50% and the DC50 was more than 100 nM. On MK2 [2], the Dmax was less than 50% and the DC50 was more than 100 nM.
On to `Cn1c(=O)n(C2CCC(=O)NC2=O)c2ccc(N3CC(CN4CCN(c5ccc(-c6cc(-c7cc8c(s7)CCNC8=O)ccn6)cc5)CC4)C3)cc21` (stereo not drawn) [Compound I-407], for which, at MK2 [1], the Dmax is less than 50% and the half-maximal degradation concentration (DC50) is more than 100 nM. For the same compound, on MK2 [2], the “MK2 MSD SW 1353 24 h Dmax %” value was “—” and the DC50 was more than 100 nM.
Regarding `Cn1c(=O)n(C2CCC(=O)NC2=O)c2ccc(N3CCC4(CC3)CC(N3CCN(c5cc(-c6cc7c([nH]6)C6(CC6)CNC7=O)ccn5)CC3)C4)cc21` (stereo not drawn) [Compound I-408], on MK2 [1], the Dmax was less than 50% and the DC50 was more than 100 nM. Further, on MK2 [2], the “MK2 MSD SW 1353 24 h Dmax %” value is “—” and the 50% degradation concentration (DC50) was more than 100 nM.
Regarding `C[C@@H]1CNc2c(sc3ccc4nc(-c5ccc(N6CC7(CCN(c8ccc9c(c8)n(C)c(=O)n9C8CCC(=O)NC8=O)CC7)C6)nc5)ccc4c23)C(=O)N1` (stereo partly drawn) [Compound I-409, 3-(3-methyl-5-(2-(5-((R)-10-methyl-8-oxo-9,10,11,12-tetrahydro-8H-[1,4]diazepino[5′,6′:4,5]thieno[3,2-f]quinolin-3-yl)pyridin-2-yl)-2,7-diazaspiro[3.5]nonan-7-yl)-2-oxo-2,3-dihydro-1H-benzo[d]imidazol-1-yl)piperidine-2,6-dione], on MK2 [1], the maximal degradation (Dmax) is more than 75% and the DC50 was less than 1 nM. In addition, on MK2 [2], the Dmax was more than 75% and the half-maximal degradation concentration (DC50) is less than 1 nM.
As for `C[C@@H]1CNc2c(sc3ccc4nc(N5CCC(N6CCC7(CCN(c8ccc9c(c8)n(C)c(=O)n9C8CCC(=O)NC8=O)CC7)C6)CC5)ccc4c23)C(=O)N1` (stereo partly drawn) [Compound I-410], the Dmax at MK2 [1] and on MK2 [2] was more than 75% throughout. Further, the DC50 on MK2 [1] and at MK2 [2] was less than 1 nM in each case.
For `C[C@@H]1CNc2c(sc3ccc4nc(N5CCCN(C6CC7(CCN(c8ccc9c(c8)n(C)c(=O)n9C8CCC(=O)NC8=O)CC7)C6)CC5)ccc4c23)C(=O)N1` (stereo partly drawn) [Compound I-411], the Dmax on MK2 [1] and at MK2 [2] was 50 to 75% each time. The half-maximal degradation concentration (DC50) lay within 10 to 100 nM on MK2 [1] and 1 to 10 nM on MK2 [2].
For `C[C@@H]1CN(C)c2c(sc3ccc4nc(-c5ccc(N6CCN(CC7CN(c8ccc9c(c8)n(C)c(=O)n9C8CCC(=O)NC8=O)C7)CC6)nc5)ccc4c23)C(=O)N1` (stereo partly drawn) [Compound I-412], at MK2 [1], the Dmax is more than 75% and the DC50 was less than 1 nM. At MK2 [2], the Dmax was more than 75% and the 50% degradation concentration (DC50) is less than 1 nM.
